The supplement of paper PMC10307832

Assays:
Experiment in all cases: relative viability (nuclei count vs DMSO), 5 days (fraction); higher = more cells survive
[1] = compound: CCn1c(-c2nonc2N)nc2cnc(Oc3cccc(NC(=O)c4ccc(OCCN5CCOCC5)cc4)c3)cc21 + N=C(N)NC(=N)NCCc1ccccc1 [Phenformin] (partner 250 µM)
In short: (§1)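 Lung cancer cell lines were seeded in 1536-well plates and dosed by pin tool the next day, with either a single drug or a fixed anchor-drug dose combined with five library-drug doses (not always all listed) spaced in √10 steps. Five days later, one step fixed the cells and stained their nuclei (final 0.05% Triton X-100, 1% formaldehyde, 1 ug/ml Hoechst), and nuclei were counted on 4× images. Relative viability is the nuclei count in treated wells divided by the count in vehicle wells, and each value is the median of duplicate plates.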

[2] = compound: CCC1=CN=CN=C1N2CCN(CC2)CC3=NC4=C(N3)C=C(C=C4)C(F)(F)F + N=C(N)NC(=N)NCCc1ccccc1 [Phenformin] (partner 250 µM)
In short: as §1

Mirin + Tozasertib = compound: N=C1NC(=O)/C(=C/c2ccc(O)cc2)S1 [Mirin] + Cc1cc(Nc2cc(N3CCN(C)CC3)nc(Sc3ccc(NC(=O)C4CC4)cc3)n2)n[nH]1 [Tozasertib] (partner 0.1 µM)
In short: as §1

[3] = compound: CCn1c(-c2nonc2N)nc2cnc(Oc3cccc(NC(=O)c4ccc(OCCN5CCOCC5)cc4)c3)cc21 + C[C@@H](Oc1cc(-c2cnn(C3CCNCC3)c2)cnc1N)c1c(Cl)ccc(F)c1Cl [Crizotinib] (partner 1 µM)
In short: as §1

Cell Line	relative viability ([1]; first compound 0.04 µM)	relative viability ([1]; first compound 0.1265 µM)	relative viability ([1]; first compound 0.4 µM)	relative viability ([1]; first compound 1.265 µM)	relative viability ([1]; first compound 4 µM)	relative viability ([2]; first compound 0.04 µM)	relative viability ([2]; first compound 0.1265 µM)	relative viability ([2]; first compound 0.4 µM)	relative viability ([2]; first compound 1.265 µM)	relative viability ([2]; first compound 4 µM)	relative viability (Mirin + Tozasertib; first compound 0.25 µM)	relative viability (Mirin + Tozasertib; first compound 0.7906 µM)	relative viability (Mirin + Tozasertib; first compound 2.5 µM)	relative viability (Mirin + Tozasertib; first compound 7.906 µM)	relative viability (Mirin + Tozasertib; first compound 25 µM)	relative viability ([3]; first compound 0.04 µM)	relative viability ([3]; first compound 0.1265 µM)	relative viability ([3]; first compound 0.4 µM)	relative viability ([3]; first compound 1.265 µM)	relative viability ([3]; first compound 4 µM)
NCI-H1355	0.53	0.426	0.261	0.24	0.227	0.456	0.428	0.406	0.395	0.424	0.526	0.637	0.533	0.394	0.272	1.16	1.11	1.18	1.01	1.01
EKVX	0.275	0.242	0.136	0.227	0.236	0.25	0.213	0.235	–	0.22	0.397	0.323	0.368	0.322	0.345	1.14	0.994	0.893	0.724	0.788
NCI-H460	0.664	0.432	0.295	0.0979	0.0635	0.465	0.525	0.484	0.439	0.499	0.386	0.393	0.402	0.229	0.221	0.962	0.697	0.597	0.276	0.0863
NCI-H1975	0.343	0.277	0.208	0.186	0.168	0.434	0.392	0.374	0.382	0.436	0.697	0.84	0.799	0.664	0.585	0.933	0.788	0.864	0.279	0.218
HCC-78	0.789	0.934	–	0.766	0.881	0.614	0.618	0.637	0.588	0.555	0.409	0.492	0.386	0.337	0.33	0.429	0.357	0.333	0.393	0.399
NCI-H2085	0.787	0.676	0.596	0.551	0.559	0.724	0.78	0.663	0.522	0.735	0.8	0.826	0.678	0.749	0.546	0.988	0.797	0.661	0.741	0.72
H3255	0.455	0.35	0.332	0.322	0.358	0.398	0.42	0.347	0.352	0.392	0.677	0.639	0.698	0.555	0.602	1.13	0.815	0.725	0.49	0.637
NCI-H2126	0.646	0.571	0.392	–	0.405	0.524	0.533	0.521	0.515	0.581	0.85	0.834	0.92	0.832	0.474	1.05	1.05	1.04	1.07	1.02
LC-2-ad	0.679	0.563	0.397	0.362	0.524	0.52	0.547	0.604	0.495	0.679	0.459	0.35	0.476	0.342	0.256	0.52	0.478	0.435	–	0.347
RERF-LC-KJ	0.487	0.42	0.379	0.289	0.324	0.407	0.382	0.467	0.366	0.41	0.488	0.524	0.467	0.424	0.385	0.886	0.822	0.82	0.535	0.36
EBC-1	–	–	–	–	–	–	–	–	–	–	–	–	–	–	–	0.227	0.207	0.175	0.17	0.136
HCC-15	0.532	0.362	0.269	–	0.364	0.487	0.46	0.465	0.445	0.434	0.336	0.344	0.359	0.202	0.177	0.961	0.746	0.723	0.75	0.772
NCI-H1563	0.592	0.61	0.507	0.582	0.553	0.713	0.639	0.662	0.661	0.689	–	–	–	–	–	0.768	0.863	0.816	0.789	0.668
COR-L 105	0.523	0.416	0.389	0.31	0.271	0.629	0.403	0.536	0.401	0.502	0.341	0.384	0.343	0.401	0.309	0.663	0.571	0.371	0.273	0.264
NCI-H596	0.898	0.77	0.598	0.531	0.661	0.729	0.66	0.67	–	0.79	1.05	0.953	0.972	1.13	0.866	0.857	0.934	0.932	0.959	1.03
LU99A	0.614	0.706	0.623	0.683	0.505	0.858	0.795	0.808	0.634	0.942	0.241	0.216	0.27	0.207	0.18	0.581	0.64	0.528	0.636	0.424
NCI-H1666	0.597	0.603	0.582	0.211	0.259	0.569	0.551	0.52	0.555	0.594	0.625	0.621	0.582	0.519	0.518	1.21	1.2	1.23	0.726	0.372
NCI-H2170	0.468	0.417	0.388	0.355	0.315	0.401	0.359	0.351	0.382	0.361	0.709	0.747	0.713	0.652	0.504	1.03	1.21	1.15	1.17	1.26
NCI-H522	0.561	0.613	0.6	0.522	0.507	0.628	0.583	0.571	0.64	0.601	0.491	0.538	0.582	0.517	0.472	–	–	–	–	–
LCLC-97TM1	0.485	0.431	0.23	0.463	0.361	0.477	0.406	0.412	0.478	0.498	0.191	0.151	0.19	0.138	0.122	0.278	0.524	–	0.427	0.596

Cell Line	relative viability ([1]; first compound 0.04 µM)	relative viability ([1]; first compound 0.1265 µM)	relative viability ([1]; first compound 0.4 µM)	relative viability ([1]; first compound 1.265 µM)	relative viability ([1]; first compound 4 µM)	relative viability ([2]; first compound 0.04 µM)	relative viability ([2]; first compound 0.1265 µM)	relative viability ([2]; first compound 0.4 µM)	relative viability ([2]; first compound 1.265 µM)	relative viability ([2]; first compound 4 µM)	relative viability (Mirin + Tozasertib; first compound 0.25 µM)	relative viability (Mirin + Tozasertib; first compound 0.7906 µM)	relative viability (Mirin + Tozasertib; first compound 2.5 µM)	relative viability (Mirin + Tozasertib; first compound 7.906 µM)	relative viability (Mirin + Tozasertib; first compound 25 µM)	relative viability ([3]; first compound 0.04 µM)	relative viability ([3]; first compound 0.1265 µM)	relative viability ([3]; first compound 0.4 µM)	relative viability ([3]; first compound 1.265 µM)	relative viability ([3]; first compound 4 µM)
NCI-H1299	–	–	–	–	–	–	–	–	–	–	–	–	–	–	–	0.961	0.878	0.768	0.71	0.473
NCI-H322M	1.12	0.982	0.632	0.557	0.579	0.874	0.761	0.772	0.632	0.799	0.509	0.524	0.569	0.447	0.401	1.28	0.976	0.96	0.953	0.922
NCI-H1395	0.517	0.45	0.453	0.305	0.365	0.41	0.436	0.444	0.415	0.458	0.703	0.857	0.66	0.772	0.72	–	–	–	–	–
NCI-H2009	0.493	0.357	0.284	0.192	0.224	0.483	0.498	0.45	0.419	0.374	0.707	0.785	0.725	0.614	0.556	0.987	0.847	0.754	0.41	0.258
NCI-H1651	0.433	0.323	0.287	0.266	0.239	0.369	0.321	0.308	0.332	0.375	0.667	0.788	0.622	0.489	0.587	0.871	0.98	0.822	0.667	0.907
HARA	0.585	0.369	0.231	0.0981	0.074	0.464	0.368	0.305	–	0.472	0.126	–	0.107	0.0865	0.0791	1.15	1.08	1.1	0.335	0.241
NCI-H1944	0.192	0.161	0.109	0.111	0.102	0.239	0.188	0.187	0.162	0.227	0.245	0.231	0.253	0.192	0.174	1.15	1.11	–	1.07	1.12
NCI-H2405	0.379	0.236	0.0695	0.124	0.13	0.418	0.401	0.419	–	0.492	0.71	0.778	0.775	0.67	0.61	0.964	0.782	0.655	0.257	0.285
201T	0.471	0.44	0.342	0.368	0.396	0.517	0.455	0.474	0.431	0.442	0.929	0.982	0.88	0.881	0.599	1	1.02	1.03	1.03	0.964
Calu-6	–	–	–	–	–	–	–	–	–	–	–	–	–	–	–	0.864	0.698	0.519	0.346	0.373
NCI-H1703	–	–	–	–	–	–	–	–	–	–	–	–	–	–	–	0.641	0.799	0.484	0.426	0.205
NCI-H2342	0.71	0.585	0.581	0.449	0.66	0.579	0.477	0.611	0.429	0.547	0.474	0.636	0.625	0.49	0.459	–	–	–	–	–
NCI-H1792	0.333	0.177	0.0802	0.145	0.225	0.382	0.259	0.162	–	0.222	–	–	–	–	–	1.08	0.99	–	0.592	0.841
NCI-H1623	0.629	0.594	0.499	0.536	0.605	0.58	0.543	0.604	0.525	0.62	0.448	0.429	0.423	0.436	0.377	–	–	–	–	–
SW 900	0.71	0.548	0.506	0.39	0.548	0.571	0.555	0.648	0.551	0.832	0.652	0.698	0.571	0.689	0.473	–	–	–	–	–
NCI-H1648	–	–	–	–	–	–	–	–	–	–	0.444	0.608	0.506	0.466	0.251	–	–	–	–	–
NCI-H1793	0.459	0.464	0.253	0.212	0.168	0.359	0.354	0.292	–	0.253	0.341	–	0.619	0.283	0.178	–	–	–	–	–
IA-LM	–	–	–	–	–	–	–	–	–	–	–	–	–	–	–	1.01	0.831	0.859	0.699	0.758
A549	0.303	0.151	0.0713	0.0328	0.0406	0.178	0.143	0.191	0.161	0.164	–	–	–	–	–	0.837	0.417	0.223	0.086	0.114
